Reference: patent US20170045529A1, “METHODS OF MEASURING ANTIGEN-SPECIFIC T CELLS” (ImmusanT, Inc., priority 2014, published 2017)
Non-standard residues stand in square brackets, D forms with d. pGlu = O=C1CC[C@@H](C(=O)O)N1

What was measured:
Type in all cases: cell-based, human
whole blood [1] = test: Whole blood IFN-γ release to peptide pools and individual peptides, MAGPIX multiplex bead assay (Example 3); details: 10 uM
whole blood [2] = test: Whole blood IP-10 release to peptide pools and individual peptides, MAGPIX multiplex bead assay (Example 3); details: Table 10C, 10 uM
whole blood [3] = test: Whole blood IL-2 release to peptide pools and individual peptides, MAGPIX multiplex bead assay (Example 3); details: 10 uM
[4] = Subject 1 (HLA-DQ 2.5, 8), day 0 of oral challenge
[5] = Subject 1 (HLA-DQ 2.5, 8), day 6 of oral challenge
[6] = Subject 2 (HLA-DQ 2.5, 8), day 0 of oral challenge
[7] = Subject 2 (HLA-DQ 2.5, 8), day 6 of oral challenge
[8] = Subject 6 (HLA-DQ 2.5), day 0 of oral challenge
[9] = Subject 6 (HLA-DQ 2.5), day 6 of oral challenge
[10] = Subject 7 (HLA-DQ 2.5, 8), day 0 of oral challenge
[11] = Subject 7 (HLA-DQ 2.5, 8), day 6 of oral challenge
[12] = Subject 1, day 0 since commencing oral challenge
[13] = Subject 1, day 6 since commencing oral challenge
[14] = Subject 2, day 0 since commencing oral challenge
[15] = Subject 2, day 6 since commencing oral challenge
[16] = Subject 6, day 0 since commencing oral challenge
[17] = Subject 6, day 6 since commencing oral challenge
[18] = Subject 7, day 0 since commencing oral challenge
[19] = Subject 7, day 6 since commencing oral challenge

## (pE)QPFPQPEQPFPWQP-NH2 ([pGlu]QPFPQPEQPFPWQP-NH2; SMILES NC(=O)CC[C@H](NC(=O)[C@H](Cc1c[nH]c2ccccc12)NC(=O)[C@@H]1CCCN1C(=O)[C@H](Cc1ccccc1)NC(=O)[C@@H]1CCCN1C(=O)[C@H](CCC(N)=O)NC(=O)[C@H](CCC(=O)O)NC(=O)[C@@H]1CCCN1C(=O)[C@H](CCC(N)=O)NC(=O)[C@@H]1CCCN1C(=O)[C@H](Cc1ccccc1)NC(=O)[C@@H]1CCCN1C(=O)[C@H](CCC(N)=O)NC(=O)[C@@H]1CCC(=O)N1)C(=O)N1CCC[C@H]1C(N)=O)
Whole blood [1]; [4]
  Whole blood IFNg release, Concentration: 60 pg/mL
  Whole blood IFNg release, Fold-change over medium only: 1.09
Whole blood [1]; [5]
  Whole blood IFNg release, Concentration: 62 pg/mL
  Whole blood IFNg release, Fold-change over medium only: 0.95
Whole blood [1]; [6]
  Whole blood IFNg release, Concentration: 4.5 pg/mL
  Whole blood IFNg release, Fold-change over medium only: 1.19
Whole blood [1]; [7]
  Whole blood IFNg release, Concentration: 6.4 pg/mL
  Whole blood IFNg release, Fold-change over medium only: 1.32
Whole blood [1]; [8]
  Whole blood IFNg release, Concentration: 94 pg/mL
  Whole blood IFNg release, Fold-change over medium only: 0.98
Whole blood [1]; [9]
  Whole blood IFNg release, Concentration: 258 pg/mL
  Whole blood IFNg release, Fold-change over medium only: 2.63
Whole blood [1]; [10]
  Whole blood IFNg release, Concentration: 158 pg/mL
  Whole blood IFNg release, Fold-change over medium only: 0.66
Whole blood [1]; [11]
  Whole blood IFNg release, Concentration: 150 pg/mL
  Whole blood IFNg release, Fold-change over medium only: 1.00
Whole blood [2]; [12]
  Whole blood IP-10 release, Concentration: 218 pg/mL
  Whole blood IP-10 release, Fold-change over medium only: 0.82
Whole blood [2]; [13]
  Whole blood IP-10 release, Concentration: 501 pg/mL
  Whole blood IP-10 release, Fold-change over medium only: 1.49
Whole blood [2]; [14]
  Whole blood IP-10 release, Concentration: 376 pg/mL
  Whole blood IP-10 release, Fold-change over medium only: 1.42
Whole blood [2]; [15]
  Whole blood IP-10 release, Concentration: 1140 pg/mL
  Whole blood IP-10 release, Fold-change over medium only: 3.65
Whole blood [2]; [16]
  Whole blood IP-10 release, Concentration: 1934 pg/mL
  Whole blood IP-10 release, Fold-change over medium only: 6.98
Whole blood [2]; [17]
  Whole blood IP-10 release, Concentration: 10000 pg/mL
  Whole blood IP-10 release, Fold-change over medium only: 49.76
Whole blood [2]; [18]
  Whole blood IP-10 release, Concentration: 900 pg/mL
  Whole blood IP-10 release, Fold-change over medium only: 1.21
Whole blood [2]; [19]
  Whole blood IP-10 release, Concentration: 10000 pg/mL
  Whole blood IP-10 release, Fold-change over medium only: 11.21
Whole blood [3]; [4]
  Whole blood IL-2 release, Concentration: 3.2 pg/mL
  Whole blood IL-2 release, Fold-change over medium only: 1.00
Whole blood [3]; [5]
  Whole blood IL-2 release, Concentration: 3.2 pg/mL
  Whole blood IL-2 release, Fold-change over medium only: 1.00
Whole blood [3]; [6]
  Whole blood IL-2 release, Concentration: 3.2 pg/mL
  Whole blood IL-2 release, Fold-change over medium only: 1.00
Whole blood [3]; [7]
  Whole blood IL-2 release, Concentration: 5.2 pg/mL
  Whole blood IL-2 release, Fold-change over medium only: 1.61
Whole blood [3]; [8]
  Whole blood IL-2 release, Concentration: 17.9 pg/mL
  Whole blood IL-2 release, Fold-change over medium only: 3.62
Whole blood [3]; [9]
  Whole blood IL-2 release, Concentration: 115.9 pg/mL
  Whole blood IL-2 release, Fold-change over medium only: 27.33
Whole blood [3]; [10]
  Whole blood IL-2 release, Concentration: 41.4 pg/mL
  Whole blood IL-2 release, Fold-change over medium only: 0.66
Whole blood [3]; [11]
  Whole blood IL-2 release, Concentration: 55.1 pg/mL
  Whole blood IL-2 release, Fold-change over medium only: 1.31

## (pE)LQPFPQPELPYPQPQ-NH2 ([pGlu]LQPFPQPELPYPQPQ-NH2; SMILES CC(C)C[C@H](NC(=O)[C@@H]1CCC(=O)N1)C(=O)N[C@@H](CCC(N)=O)C(=O)N1CCC[C@H]1C(=O)N[C@@H](Cc1ccccc1)C(=O)N1CCC[C@H]1C(=O)N[C@@H](CCC(N)=O)C(=O)N1CCC[C@H]1C(=O)N[C@@H](CCC(=O)O)C(=O)N[C@@H](CC(C)C)C(=O)N1CCC[C@H]1C(=O)N[C@@H](Cc1ccc(O)cc1)C(=O)N1CCC[C@H]1C(=O)N[C@@H](CCC(N)=O)C(=O)N1CCC[C@H]1C(=O)N[C@@H](CCC(N)=O)C(N)=O)
Whole blood [1]; [4]
  Whole blood IFNg release, Concentration: 39 pg/mL
  Whole blood IFNg release, Fold-change over medium only: 0.71
Whole blood [1]; [5]
  Whole blood IFNg release, Concentration: 55 pg/mL
  Whole blood IFNg release, Fold-change over medium only: 0.84
Whole blood [1]; [6]
  Whole blood IFNg release, Concentration: 4.1 pg/mL
  Whole blood IFNg release, Fold-change over medium only: 1.06
Whole blood [1]; [7]
  Whole blood IFNg release, Concentration: 13.9 pg/mL
  Whole blood IFNg release, Fold-change over medium only: 2.85
Whole blood [1]; [8]
  Whole blood IFNg release, Concentration: 102 pg/mL
  Whole blood IFNg release, Fold-change over medium only: 1.05
Whole blood [1]; [9]
  Whole blood IFNg release, Concentration: 200 pg/mL
  Whole blood IFNg release, Fold-change over medium only: 2.03
Whole blood [1]; [10]
  Whole blood IFNg release, Concentration: 407 pg/mL
  Whole blood IFNg release, Fold-change over medium only: 1.71
Whole blood [1]; [11]
  Whole blood IFNg release, Concentration: 194 pg/mL
  Whole blood IFNg release, Fold-change over medium only: 1.29
Whole blood [2]; [12]
  Whole blood IP-10 release, Concentration: 201 pg/mL
  Whole blood IP-10 release, Fold-change over medium only: 0.76
Whole blood [2]; [13]
  Whole blood IP-10 release, Concentration: 384 pg/mL
  Whole blood IP-10 release, Fold-change over medium only: 1.15
Whole blood [2]; [14]
  Whole blood IP-10 release, Concentration: 320 pg/mL
  Whole blood IP-10 release, Fold-change over medium only: 1.20
Whole blood [2]; [15]
  Whole blood IP-10 release, Concentration: 1844 pg/mL
  Whole blood IP-10 release, Fold-change over medium only: 5.90
Whole blood [2]; [16]
  Whole blood IP-10 release, Concentration: 1616 pg/mL
  Whole blood IP-10 release, Fold-change over medium only: 5.83
Whole blood [2]; [17]
  Whole blood IP-10 release, Concentration: 10000 pg/mL
  Whole blood IP-10 release, Fold-change over medium only: 49.76
Whole blood [2]; [18]
  Whole blood IP-10 release, Concentration: 977 pg/mL
  Whole blood IP-10 release, Fold-change over medium only: 1.32
Whole blood [2]; [19]
  Whole blood IP-10 release, Concentration: 3293 pg/mL
  Whole blood IP-10 release, Fold-change over medium only: 3.69
Whole blood [3]; [4]
  Whole blood IL-2 release, Concentration: 3.2 pg/mL
  Whole blood IL-2 release, Fold-change over medium only: 1.00
Whole blood [3]; [5]
  Whole blood IL-2 release, Concentration: 3.2 pg/mL
  Whole blood IL-2 release, Fold-change over medium only: 1.00
Whole blood [3]; [6]
  Whole blood IL-2 release, Concentration: 3.2 pg/mL
  Whole blood IL-2 release, Fold-change over medium only: 1.00
Whole blood [3]; [7]
  Whole blood IL-2 release, Concentration: 12.2 pg/mL
  Whole blood IL-2 release, Fold-change over medium only: 3.82
Whole blood [3]; [8]
  Whole blood IL-2 release, Concentration: 12.5 pg/mL
  Whole blood IL-2 release, Fold-change over medium only: 2.52
Whole blood [3]; [9]
  Whole blood IL-2 release, Concentration: 88.5 pg/mL
  Whole blood IL-2 release, Fold-change over medium only: 20.88
Whole blood [3]; [10]
  Whole blood IL-2 release, Concentration: 144.4 pg/mL
  Whole blood IL-2 release, Fold-change over medium only: 2.30
Whole blood [3]; [11]
  Whole blood IL-2 release, Concentration: 71.2 pg/mL
  Whole blood IL-2 release, Fold-change over medium only: 1.69
